Experimental data published in PMC2774234 (Molecular cancer research : MCR, 2009).

Tested on: Prx1
Test: Immunoblot of Prx1 after transient Prx1 siRNA transfection of LNCaP cells
Assay type: cell-based, human
Conditions: 75 nM siRNA

Q: For “11838: Ambion siRNA directed against exon 6 of Prx1; sense 5'-GGCUACUGGUUUGUAUGAUTT-3' (antisense AUCAUACAAACCAGUAGCCTG; chemistry not given here) [compound 11838]”, which “expression of Prx1 (immunoblot)” value is on record?
A: essentially abolished the expression of Prx1
